Source: US20240091366A1, “NOVEL ACID-SENSITIVE APTAMER TRIPTOLIDE CONJUGATE AND APPLICATIONS” (priority 2022, published 2024)

Columns and labels:
[1] = background art; cited from earlier work
[2] = MTT assay, cytotoxicity on normal cells; type: cell-based, human; settings: 48 h
Description: The same materials as those in Part II above are not repeated here, in addition to the following: human normal hepatocytes LO2, human embryonic kidney cells HEK293 were purchased from the Shanghai Cell Bank of the Chinese Academy of Sciences and preserved in our laboratory.
Take the […] LO2 and HEK293 cell lines from the liquid nitrogen tank, place them in a 37° C. water bath, wait for the frozen cells to melt into cell suspension, centrifuge the cells at 1000 r/min for 3 min, discard the supernatant, add 1 ml of fresh complete medium containing 10% fetal bovine serum and 1% double antibody to mix the cells, then add 5 ml of medium, gently and repeatedly blowing the cells with a pipette gun to make them mix well. Then add 5 ml of medium, blow the cells gently and repeatedly with a pipette gun to mix them well, and finally transfer the cell suspension to a […] and label the cell name, cell number, date of resuscitation and the operator's name, and place it in a cell culture incubator for cultivation. (HEK293 cell line was cultured with DMEM medium, LO2 cell line was cultured with RPMI1640 medium)
Take LO2 and HEK293 cells with good growth status, remove the medium, add 1 ml of sterile PBS to wash, add 1.5 ml of trypsin to digest the cells, about 2 min later the cells become round and fall off, add 1.5 ml of medium to terminate the digestion, transfer it to centrifugal tube, centrifuge at 1000 r/min for 3 min, discard the supernatant, add 1 ml of fresh medium to resuspend, then add fresh medium for 1:3 distribution to other culture dishes, and label the date of transmission and the number of generations. Place in the cell culture incubator for cultivation.
Take LO2 and HEK293 cells with good growth status, by the same operation as the cell passaging experiment, after cell resuspension, cell counting with hemocyte counting plate, with 3000 cells/well, plant in 96-well plate, after 24 h of cell culture, remove the original medium, add medium containing different concentrations of drugs and continue to cultivate for 48 hours. After 24 h of cell culture, the original medium was removed and the medium containing different concentrations of drugs was added to continue the culture for 48 hours. […] The above steps were repeated three times.

**Q.** Which solubility in water [1] does the source give for `CC(C)[C@]12O[C@H]1[C@@H]1O[C@]13[C@]1(O[C@H]1C[C@H]1C4=C(CC[C@@]13C)C(=O)OC4)[C@@H]2O` [TP, Triptolide] here?
**A.** The solubility in water was “insoluble in water”.

**Q.** And the IC50 at 48 h ([2]; human, LO2 normal hepatocyte cells, normal hepatocytes LO2, MTT)?
**A.** Its IC50 at 48 h is 9.01 ± 0.25 nM.

**Q.** What about the IC50 at 48 h ([2]; normal human embryonic kidney cells HEK293, MTT) of the same compound?
**A.** Its IC50 at 48 h is 5.98 ± 0.21 nM.
